Measurements from US4533665A, “[[Bis(aryl)methylene]-1-piperidinyl]alkyl-pyrimidinones” (Janssen Pharmaceutica, priority 1984, dated 1985).
Where a name gives a salt, the structure may show the parent alone.

Molecular target: T1, S2-receptor (Rattus norvegicus, UniProt P14842)
T1 construct: Caudal arteries from fasted male rats; from tissue; host or cells: rat caudal artery, helical strips
Experiment: antagonistic activity on the effect of serotonin on the caudal artery of the rat (caudal artery test)
Details: rat caudal artery strips; serotonin 40 ng/ml; 5 minutes after adding the drug; read-out: ED50 (minimal concentration which reduces the amplitude of the serotonin-induced contraction to at least 50% of its normal value) (converted)
Experimental: ANTAGONISTIC ACTIVITY ON THE EFFECT OF SEROTONIN ON THE CAUDAL ARTERY OF THE RAT
Caudal arteries from fasted male rats (210-235 g) were used in the test. […] Submaximal contractions of the arterial strips were produced by adding single doses of serotonin (40 ng/ml) to the organ bath for 2 minutes with each time an interval of 10 minutes. The amplitude of the contraction was measured before and 5 minutes after adding the drug. After washing out, the agonist was added again three times in order to see whether the contraction was restored and normalized. […] In this connection the ED50 -values are the minimal concentrations of the concerned drugs which reduce the amplitude of the contraction to at least 50% of its normal value.

T1 sequence (P14842 whole entry): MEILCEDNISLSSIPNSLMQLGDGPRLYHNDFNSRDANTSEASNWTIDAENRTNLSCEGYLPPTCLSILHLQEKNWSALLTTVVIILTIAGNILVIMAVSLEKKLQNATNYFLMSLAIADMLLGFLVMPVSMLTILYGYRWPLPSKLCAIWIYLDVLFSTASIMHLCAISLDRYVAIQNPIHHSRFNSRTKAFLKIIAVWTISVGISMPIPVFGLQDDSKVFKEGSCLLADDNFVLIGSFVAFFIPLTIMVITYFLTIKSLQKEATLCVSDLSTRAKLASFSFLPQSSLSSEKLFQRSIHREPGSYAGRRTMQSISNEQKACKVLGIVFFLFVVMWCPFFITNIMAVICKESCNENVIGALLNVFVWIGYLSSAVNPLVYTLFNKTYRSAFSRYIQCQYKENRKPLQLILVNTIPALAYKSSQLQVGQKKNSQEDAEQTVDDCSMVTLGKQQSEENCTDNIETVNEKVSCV

Row | IC50 [pM] | Compound
1 | 2.63 | Cc1nc2sccn2c(=O)c1CCN1CCC(=C(c2ccc(F)cc2)c2ccc(F)cc2)C(O)C1 (stereo not shown) [Compound 60]
2 | 0.673 | Cc1ccc(C(=C2CCN(CCc3c(C)nc4n(c3=O)CCS4)CC2)c2ccc(F)cc2)cc1 [Compound 47]
3 | 2.64 | Cc1nc2n(c(=O)c1CCN1CCC(=C(c3ccc(O)cc3)c3ccc(F)cc3)CC1)CCCS2 [Compound 37]
4 | 1.4 | Cc1nc2ccc(Cl)cn2c(=O)c1CCN1CCC(=C(c2ccc(F)cc2)c2ccc(F)cc2)CC1 [Compound 51]
5 | 0.175 | Cc1ccc(C(=C2CCN(CCc3c(C)nc4n(c3=O)CCS4)CC2)c2ccccc2)cc1 [Compound 130]
6 | 1.33 | Cc1nc2n(c(=O)c1CCN1CCC(=C(c3ccc(O)cc3)c3ccc(F)cc3)CC1)CCCC2 [Compound 39]
7 | < 5.32 | Cc1ccccc1C(=C1CCN(CCc2c(C)nc3scc(C)n3c2=O)CC1)c1ccccc1 [Compound 81]
8 | 1.33 | Cc1cccc(C(=C2CCN(CCc3c(C)nc4sccn4c3=O)CC2)c2ccc(F)cc2)c1 [Compound 14]
9 | 1.11 | COc1ccc(C(=C2CCN(CCc3c(C)nc4scc(C)n4c3=O)CC2)c2ccc(F)cc2)cc1 [Compound 142, 6-[2-[4-[(4-fluorophenyl)(4-methoxyphenyl)methylene]-1-piperidinyl]ethyl]-3,7-dimethyl-5H-thiazolo[3,2-a]pyrimidin-5-one]
10 | 0.656 | Cc1cccc(C(=C2CCN(CCc3c(C)nc4scc(C)n4c3=O)CC2)c2ccc(F)cc2)c1 [Compound 122]
11 | 0.158 | Cc1ccc(C(=C2CCN(CCc3c(C)nc4sccn4c3=O)CC2)c2ccccc2)cc1 [Compound 66]
12 | 1.39 | Cc1nc2n(c(=O)c1CCN1CCC(=C(c3ccccc3)c3cccc(C(F)(F)F)c3)CC1)CCS2 [Compound 90]
13 | < 1.28 | Cc1nc2sccn2c(=O)c1CCN1CCC(=C(c2ccc(F)cc2)c2ccc(Cl)cc2)CC1 [Compound 9]
14 | 0.681 | Cc1cccc(C(=C2CCN(CCc3c(C)nc4scc(C)n4c3=O)CC2)c2ccccc2)c1 [Compound 68]
15 | 0.63 | Cc1nc2n(c(=O)c1CCN1CCC(=C(c3ccccc3)c3cccc(C(F)(F)F)c3)CC1)CCCC2 [Compound 86]
16 | 1.46 | Cc1nc2ccc(N)cn2c(=O)c1CCN1CCC(=C(c2ccc(F)cc2)c2ccc(F)cc2)CC1 [Compound 141, 7-amino-3-[2-[4-[bis(4-fluorophenyl)methylene]-1-piperidinyl]ethyl]-2-methyl-4H-pyrido[1,2-a]-pyrimidin-4-one]
17 | 1.46 | Cc1ccc2nc(C)c(CCN3CCC(=C(c4ccc(F)cc4)c4ccc(F)cc4)CC3)c(=O)n2c1 [Compound 50]
18 | 0.323 | Cc1nc2n(c(=O)c1CCN1CCC(=C(c3ccc(F)cc3)c3cccc(Cl)c3)CC1)CCS2 [Compound 5]
19 | 0.293 | Cc1nc2sccn2c(=O)c1CCN1CCC(=C(c2ccc(F)cc2)c2cccc(F)c2)CC1 [Compound 25]
20 | 1.3 | COc1ccc(C(=C2CCN(CCc3c(C)nc4ccccn4c3=O)CC2)c2ccc(F)cc2)cc1 [Compound 143, 3-[2-[4-[(4-fluorophenyl)(4-methoxyphenyl)methylene]-1-piperidinyl]ethyl]-2-methyl-4H-pyrido[1,2-a]pyrimidin-4-one dihydrochloride.monohydrate]
21 | 0.659 | Cc1ccn2c(=O)c(CCN3CCC(=C(c4ccc(F)cc4)c4ccc(F)cc4)CC3)c(C)nc2c1 [Compound 59]
22 | 2.31 | Cc1nc2scc(C)n2c(=O)c1CCN1CCC(=C(c2ccc(F)cc2)c2cccc(C(F)(F)F)c2)CC1 [Compound 119]

Row | IC50 [pM] | Compound
23 | 2.65 | Cc1cccc(C(=C2CCN(CCc3c(C)nc4n(c3=O)CCCC4)CC2)c2ccc(F)cc2)c1 [Compound 138, 3-[2-[4-[(4-fluorophenyl)(3-methylphenyl)methylene]-1-piperidinyl]ethyl]-6,7,8,9-tetrahydro-2-methyl-4H-pyrido[1,2-a]pyrimidin-4-one]
24 | 0.684 | Cc1ccc(C(=C2CCN(CCc3c(C)nc4ccccn4c3=O)CC2)c2ccc(F)cc2)cc1 [Compound 41]
25 | < 4.77 | Cc1nc2scc(C)n2c(=O)c1CCN1CCC(=C(c2ccccc2)c2cccc(C(F)(F)F)c2)CC1 [Compound 85]
26 | 1.18 | Cc1nc2n(c(=O)c1CCN1CCC(=C(c3ccc(F)cc3)c3ccc(F)cc3)CC1)CCCC2 [Compound 3]
27 | 1.19 | Cc1nc2sccn2c(=O)c1CCN1CCC(=C(c2ccc(F)cc2)c2cccc(C(F)(F)F)c2)CC1 [Compound 21]
28 | 5.05 | Cc1nc2n(c(=O)c1CCN1CCC(=C(c3ccc(F)cc3)c3ccc(Br)cc3)CC1)CCCS2 [Compound 33]
29 | 1.19 | Cc1cccc(C(=C2CCN(CCc3c(C)nc4n(c3=O)CCCS4)CC2)c2ccccc2)c1 [Compound 70]
30 | 4.31 | Cc1nc2sccn2c(=O)c1CCN1CCC(=C(c2ccc(Cl)cc2)c2ccc(Cl)cc2)CC1 [Compound 48]
31 | 1.04 | Cc1nc2n(c(=O)c1CCN1CCC(=C(c3ccc(F)cc3)c3ccc(Br)cc3)CC1)CCS2 [Compound 44]
32 | 2.54 | Cc1nc2n(c(=O)c1CCN1CCC(=C(c3ccc(F)cc3)c3ccc(Cl)cc3)CC1)CCCC2 [Compound 11]
33 | 0.676 | Cc1ccc(C(=C2CCN(CCc3c(C)nc4sccn4c3=O)CC2)c2ccc(F)cc2)cc1 [Compound 49]
34 | 1.03 | Cc1nc2n(c(=O)c1CCN1CCC(=C(c3ccc(F)cc3)c3cccc(C(F)(F)F)c3)CC1)CCCS2 [Compound 120]
35 | 1.06 | COc1ccc(C(=C2CCN(CCc3c(C)nc4sccn4c3=O)CC2)c2ccc(F)cc2)cc1 [Compound 144, 6-[2-[4-[(4-fluorophenyl)(4-methoxyphenyl)methylene]-1-piperidinyl]ethyl]-7-methyl-5H-thiazolo[3,2-a]pyrimidin-5-one monohydrochloride]
36 | 0.656 | Cc1ccc(C(=C2CCN(CCc3c(C)nc4scc(C)n4c3=O)CC2)c2ccc(F)cc2)cc1 [Compound 38]
37 | 0.49 | Cc1ccc(C(=C2CCN(CCc3c(C)nc4scc(C)n4c3=O)CC2)c2ccccc2)cc1 [Compound 129]
38 | 2.56 | COC1CN(CCc2c(C)nc3sccn3c2=O)CCC1=C(c1ccc(F)cc1)c1ccc(F)cc1 (stereo not shown) [Compound 63]
39 | 4.66 | Cc1ccc(C(=C2CCN(CCc3c(C)nc4n(c3=O)CCCC4)CC2)c2ccc(F)cc2)cc1 [Compound 42]
40 | 0.651 | Cc1nc2scc(C)n2c(=O)c1CCN1CCC(=C(c2ccc(F)cc2)c2cccc(F)c2)CC1 [Compound 27]
41 | 2.32 | COc1ccc(C(=C2CCN(CCc3c(C)nc4n(c3=O)CCCC4)CC2)c2ccc(F)cc2)cc1 [Compound 146, 3-[2-[4-[(4-fluorophenyl)(4-methoxyphenyl)methylene]-1-piperidinyl]ethyl]-6,7,8,9-tetrahydro-2-methyl-4H-pyrido[1,2-a]pyrimidin-4-one dihydrochloride]
42 | 0.651 | Cc1nc2scc(C)n2c(=O)c1CCN1CCC(=C(c2ccc(F)cc2)c2ccc(F)cc2)CC1 [Compound 112, 6-[2-[4-[bis(4-fluorophenyl)methylene]-1-piperidinyl]ethyl]-3,7-dimethyl-5H-thiazolo[3,2-a]pyrimidin-5-one]
43 | 0.699 | Cc1nc2n(c(=O)c1CCN1CCC(=C(c3ccccc3)c3ccccc3)CC1)CCCS2 [Compound 104, 7-[2-[4-(diphenylmethylene)-1-piperidinyl]ethyl]-3,4-dihydro-8-methyl-2H,6H-pyrimido[2,1-b][1,3]-thiazin-6-one]
